Reference: the kinase profiling compilation of Christmann-Franck et al. (2016)

Experiments:
Assay in all cases: KINOMEscan competition binding
Conditions in all cases: compound 1.0 µM
CAMK2G (human) = CAMK2G (human) (UniProt Q13555)
CDC2L2 (human) = CDC2L2 (human) (UniProt Q9UQ88)
CDK8 (human) = CDK8 (human) (UniProt P49336)
CLK1 (human) = CLK1 (human) (UniProt P49759)
CRK2 (P.falciparum) = CRK2 (P.falciparum) (UniProt P61075)
CSNK1D (human) = CSNK1D (human) (UniProt P48730)
CSNK1G1 (human) = CSNK1G1 (human) (UniProt Q9HCP0)
DCLK1 (human) = DCLK1 (human) (UniProt O15075)
[1] = system: EGFR (human), P00533 [746-750 del]
EPHA2 (human) = EPHA2 (human) (UniProt P29317)
EPHB4 (human) = EPHB4 (human) (UniProt P54760)
FGFR1 (human) = FGFR1 (human) (UniProt P11362)
FGFR2 (human) = FGFR2 (human) (UniProt P21802)
FGFR3 (human) = FGFR3 (human) (UniProt P22607)
GSK3B (human) = GSK3B (human) (UniProt P49841)
INSR (human) = INSR (human) (UniProt P06213)
[2] = molecular target: JAK1 JH2 pseudokinase (human) (UniProt P23458)
KIT (human) = KIT (human) (UniProt P10721)
[3] = system: KIT (human), P10721 [D816H]
MAP3K11 (human) = MAP3K11 (human) (UniProt Q16584)
MAPK8 (human) = MAPK8 (human) (UniProt P45983)
MAPKAPK5 (human) = MAPKAPK5 (human) (UniProt Q8IW41)
MAST1 (human) = MAST1 (human) (UniProt Q9Y2H9)
MATK (human) = MATK (human) (UniProt P42679)
MINK1 (human) = MINK1 (human) (UniProt Q8N4C8)
MKNK2 (human) = MKNK2 (human) (UniProt Q9HBH9)
MYO3B (human) = MYO3B (human) (UniProt Q8WXR4)
NEK5 (human) = NEK5 (human) (UniProt Q6P3R8)
PAK7 (human) = PAK7 (human) (UniProt Q9P286)
[4] = system: PIK3CA (human), P42336 [H1047L]
[5] = system: PIK3CA (human), P42336 [H1047Y]
PLK3 (human) = PLK3 (human) (UniProt Q9H4B4)
PRKCQ (human) = PRKCQ (human) (UniProt Q04759)
PRKD1 (human) = PRKD1 (human) (UniProt Q15139)
PRKD2 (human) = PRKD2 (human) (UniProt Q9BZL6)
PRPF4B (human) = PRPF4B (human) (UniProt Q13523)
PTK6 (human) = PTK6 (human) (UniProt Q13882)
RIOK2 (human) = RIOK2 (human) (UniProt Q9BVS4)
RIPK1 (human) = RIPK1 (human) (UniProt Q13546)
RPS6KA3 KD1 (human) = RPS6KA3 KD1 (human) (UniProt P51812)
RPS6KA5 KD2 (human) = RPS6KA5 KD2 (human) (UniProt O75582)
SRC (human) = SRC (human) (UniProt P12931)
ULK2 (human) = ULK2 (human) (UniProt Q8IYT8)

Sequence of EPHA2 (human) (P29317 whole entry, looked up): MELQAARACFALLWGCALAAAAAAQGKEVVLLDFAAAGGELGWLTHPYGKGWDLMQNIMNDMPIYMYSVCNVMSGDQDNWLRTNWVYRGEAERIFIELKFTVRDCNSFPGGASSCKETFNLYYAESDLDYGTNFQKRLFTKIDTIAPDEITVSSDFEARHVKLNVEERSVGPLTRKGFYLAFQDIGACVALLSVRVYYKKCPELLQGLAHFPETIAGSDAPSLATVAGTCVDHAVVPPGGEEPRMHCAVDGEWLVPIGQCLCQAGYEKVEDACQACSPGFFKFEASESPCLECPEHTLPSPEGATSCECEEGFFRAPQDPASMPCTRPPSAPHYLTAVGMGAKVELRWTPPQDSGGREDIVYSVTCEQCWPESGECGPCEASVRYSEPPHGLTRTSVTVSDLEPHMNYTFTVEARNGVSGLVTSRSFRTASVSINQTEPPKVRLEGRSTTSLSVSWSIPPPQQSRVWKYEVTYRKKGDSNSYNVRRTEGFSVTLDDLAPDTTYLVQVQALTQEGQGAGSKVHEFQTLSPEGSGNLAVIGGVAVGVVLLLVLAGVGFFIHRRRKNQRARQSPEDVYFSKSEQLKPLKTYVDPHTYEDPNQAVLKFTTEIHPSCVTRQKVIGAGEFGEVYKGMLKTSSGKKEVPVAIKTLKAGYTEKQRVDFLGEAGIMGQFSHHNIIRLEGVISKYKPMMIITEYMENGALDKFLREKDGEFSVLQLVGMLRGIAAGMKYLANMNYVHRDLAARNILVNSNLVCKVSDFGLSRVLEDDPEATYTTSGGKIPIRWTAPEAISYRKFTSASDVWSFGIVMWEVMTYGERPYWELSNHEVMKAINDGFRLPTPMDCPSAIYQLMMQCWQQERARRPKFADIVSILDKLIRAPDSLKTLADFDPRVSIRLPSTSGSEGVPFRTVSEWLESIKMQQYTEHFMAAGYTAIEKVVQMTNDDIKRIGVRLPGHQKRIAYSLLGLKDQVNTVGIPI
Sequence of MAST1 (human) (Q9Y2H9 whole entry, looked up): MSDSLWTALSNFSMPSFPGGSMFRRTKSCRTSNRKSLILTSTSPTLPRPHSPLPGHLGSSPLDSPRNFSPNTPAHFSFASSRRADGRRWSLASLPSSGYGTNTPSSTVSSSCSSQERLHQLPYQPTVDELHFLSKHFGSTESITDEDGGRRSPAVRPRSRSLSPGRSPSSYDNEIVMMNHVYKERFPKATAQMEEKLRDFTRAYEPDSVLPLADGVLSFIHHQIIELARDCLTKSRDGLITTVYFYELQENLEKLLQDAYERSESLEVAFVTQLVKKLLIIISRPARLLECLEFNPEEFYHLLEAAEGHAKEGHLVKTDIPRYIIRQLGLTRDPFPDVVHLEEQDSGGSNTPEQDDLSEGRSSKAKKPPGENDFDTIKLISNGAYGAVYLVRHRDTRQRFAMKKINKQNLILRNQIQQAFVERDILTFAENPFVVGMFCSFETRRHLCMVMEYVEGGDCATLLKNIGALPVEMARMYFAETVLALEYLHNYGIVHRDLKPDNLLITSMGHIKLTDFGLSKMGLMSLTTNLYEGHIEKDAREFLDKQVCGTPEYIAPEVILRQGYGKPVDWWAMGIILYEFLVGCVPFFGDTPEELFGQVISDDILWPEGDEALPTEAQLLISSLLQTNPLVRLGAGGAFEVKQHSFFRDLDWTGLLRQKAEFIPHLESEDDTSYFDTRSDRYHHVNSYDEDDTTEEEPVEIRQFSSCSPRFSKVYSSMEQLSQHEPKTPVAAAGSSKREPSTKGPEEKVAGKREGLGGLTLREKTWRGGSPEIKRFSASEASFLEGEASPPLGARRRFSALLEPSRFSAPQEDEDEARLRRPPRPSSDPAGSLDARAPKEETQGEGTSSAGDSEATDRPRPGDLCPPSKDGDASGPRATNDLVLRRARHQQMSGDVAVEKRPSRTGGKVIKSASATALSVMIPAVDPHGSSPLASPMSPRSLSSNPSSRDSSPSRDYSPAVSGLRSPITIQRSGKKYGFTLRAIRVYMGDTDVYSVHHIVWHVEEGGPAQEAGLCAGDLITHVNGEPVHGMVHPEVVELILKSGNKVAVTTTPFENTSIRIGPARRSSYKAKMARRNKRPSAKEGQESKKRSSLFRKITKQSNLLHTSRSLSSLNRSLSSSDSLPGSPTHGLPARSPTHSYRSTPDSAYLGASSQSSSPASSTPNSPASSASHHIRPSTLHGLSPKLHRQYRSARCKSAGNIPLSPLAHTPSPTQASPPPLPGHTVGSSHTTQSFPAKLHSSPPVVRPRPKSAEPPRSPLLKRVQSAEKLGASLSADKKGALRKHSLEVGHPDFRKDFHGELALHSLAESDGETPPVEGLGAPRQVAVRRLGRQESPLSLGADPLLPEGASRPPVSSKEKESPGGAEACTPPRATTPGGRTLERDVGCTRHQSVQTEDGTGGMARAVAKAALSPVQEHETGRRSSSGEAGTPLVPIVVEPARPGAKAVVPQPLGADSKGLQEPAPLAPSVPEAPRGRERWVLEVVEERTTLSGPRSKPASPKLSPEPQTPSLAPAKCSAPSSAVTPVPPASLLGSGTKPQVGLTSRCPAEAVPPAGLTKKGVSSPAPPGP
Sequence of PRKD2 (human) (Q9BZL6 whole entry, looked up): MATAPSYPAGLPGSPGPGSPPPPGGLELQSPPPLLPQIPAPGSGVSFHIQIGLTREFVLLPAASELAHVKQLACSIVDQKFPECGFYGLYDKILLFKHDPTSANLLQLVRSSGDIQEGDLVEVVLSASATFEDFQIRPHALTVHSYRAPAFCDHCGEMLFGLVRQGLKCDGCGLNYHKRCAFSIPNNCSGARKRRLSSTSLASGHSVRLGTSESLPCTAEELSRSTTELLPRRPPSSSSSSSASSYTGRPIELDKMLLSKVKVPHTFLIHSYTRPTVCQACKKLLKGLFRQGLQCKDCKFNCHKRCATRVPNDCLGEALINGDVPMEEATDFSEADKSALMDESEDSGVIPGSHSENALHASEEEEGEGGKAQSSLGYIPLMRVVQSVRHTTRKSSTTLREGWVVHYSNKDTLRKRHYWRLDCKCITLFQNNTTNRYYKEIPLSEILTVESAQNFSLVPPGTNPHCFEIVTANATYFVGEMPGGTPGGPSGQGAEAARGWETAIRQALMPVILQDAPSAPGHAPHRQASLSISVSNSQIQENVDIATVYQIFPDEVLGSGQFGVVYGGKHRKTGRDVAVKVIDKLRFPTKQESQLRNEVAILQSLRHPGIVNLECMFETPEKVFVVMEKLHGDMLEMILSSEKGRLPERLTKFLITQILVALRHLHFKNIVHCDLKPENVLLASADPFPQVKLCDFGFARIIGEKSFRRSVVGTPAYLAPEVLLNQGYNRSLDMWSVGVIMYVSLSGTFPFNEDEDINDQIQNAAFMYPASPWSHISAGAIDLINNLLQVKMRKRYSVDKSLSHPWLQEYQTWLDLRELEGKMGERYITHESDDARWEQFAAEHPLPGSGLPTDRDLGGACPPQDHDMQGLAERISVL
Sequence of SRC (human) (P12931 whole entry, looked up): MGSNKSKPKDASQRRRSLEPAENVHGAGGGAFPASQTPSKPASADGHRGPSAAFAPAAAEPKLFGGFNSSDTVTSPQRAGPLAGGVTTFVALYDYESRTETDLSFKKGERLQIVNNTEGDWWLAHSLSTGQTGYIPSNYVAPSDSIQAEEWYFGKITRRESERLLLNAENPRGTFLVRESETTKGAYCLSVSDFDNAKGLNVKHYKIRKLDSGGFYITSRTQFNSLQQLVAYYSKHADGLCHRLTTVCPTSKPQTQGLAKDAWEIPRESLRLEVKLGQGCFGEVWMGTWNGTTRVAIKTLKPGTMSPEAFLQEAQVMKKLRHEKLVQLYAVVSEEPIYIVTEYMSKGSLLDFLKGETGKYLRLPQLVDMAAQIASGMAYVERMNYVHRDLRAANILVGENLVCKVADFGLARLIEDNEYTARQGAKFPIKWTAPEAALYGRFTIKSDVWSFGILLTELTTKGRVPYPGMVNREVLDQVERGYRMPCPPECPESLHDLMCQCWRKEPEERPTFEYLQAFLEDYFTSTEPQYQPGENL
Sequence of DCLK1 (human) (O15075 whole entry, looked up): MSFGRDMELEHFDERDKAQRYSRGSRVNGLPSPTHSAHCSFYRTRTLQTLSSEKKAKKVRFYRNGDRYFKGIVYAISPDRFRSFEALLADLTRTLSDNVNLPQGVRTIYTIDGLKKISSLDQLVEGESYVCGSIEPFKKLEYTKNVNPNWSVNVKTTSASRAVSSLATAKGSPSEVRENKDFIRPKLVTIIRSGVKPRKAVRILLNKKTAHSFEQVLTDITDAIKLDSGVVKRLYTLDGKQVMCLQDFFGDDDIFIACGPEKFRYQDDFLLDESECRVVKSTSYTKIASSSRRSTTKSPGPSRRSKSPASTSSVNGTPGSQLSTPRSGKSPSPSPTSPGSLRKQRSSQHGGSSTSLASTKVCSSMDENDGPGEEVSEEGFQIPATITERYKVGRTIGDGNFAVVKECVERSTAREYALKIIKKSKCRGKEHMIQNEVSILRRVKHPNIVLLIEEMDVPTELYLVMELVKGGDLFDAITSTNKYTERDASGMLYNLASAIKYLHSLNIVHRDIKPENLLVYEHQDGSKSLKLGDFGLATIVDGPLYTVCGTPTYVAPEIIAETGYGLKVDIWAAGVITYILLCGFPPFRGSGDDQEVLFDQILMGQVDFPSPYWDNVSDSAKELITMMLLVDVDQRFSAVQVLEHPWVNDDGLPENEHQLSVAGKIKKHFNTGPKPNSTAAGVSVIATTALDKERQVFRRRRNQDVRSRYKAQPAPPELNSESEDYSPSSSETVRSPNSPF
Sequence of CRK2 (P.falciparum) (P61075 whole entry, looked up): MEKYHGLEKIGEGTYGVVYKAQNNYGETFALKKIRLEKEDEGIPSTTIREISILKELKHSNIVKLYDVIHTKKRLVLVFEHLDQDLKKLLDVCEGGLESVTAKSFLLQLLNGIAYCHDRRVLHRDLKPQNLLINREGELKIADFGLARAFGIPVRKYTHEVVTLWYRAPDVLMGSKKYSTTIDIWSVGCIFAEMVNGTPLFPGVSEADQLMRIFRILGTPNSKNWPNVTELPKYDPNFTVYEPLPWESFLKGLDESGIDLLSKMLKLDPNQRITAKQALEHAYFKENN

## COCCNCCCn1c(C(=O)CF)c(-c2ccc(C)cc2)c2c(N)ncnc21
CAMK2G (human)
  kinase still bound, per cent of control: 100%
CDC2L2 (human)
  kinase still bound, per cent of control: 100%
CDK8 (human)
  kinase still bound, per cent of control: 100%
CLK1 (human)
  kinase still bound, per cent of control: 87%
CRK2 (P.falciparum)
  kinase still bound, per cent of control: 100%
CSNK1D (human)
  kinase still bound, per cent of control: 82%
CSNK1G1 (human)
  kinase still bound, per cent of control: 91%
DCLK1 (human)
  kinase still bound, per cent of control: 100%
[1]
  kinase still bound, per cent of control: 100%
EPHA2 (human)
  kinase still bound, per cent of control: 100%
EPHB4 (human)
  kinase still bound, per cent of control: 89%
FGFR1 (human)
  kinase still bound, per cent of control: 98%
FGFR2 (human)
  kinase still bound, per cent of control: 100%
FGFR3 (human)
  kinase still bound, per cent of control: 92%
GSK3B (human)
  kinase still bound, per cent of control: 100%
INSR (human)
  kinase still bound, per cent of control: 84%
[2]
  kinase still bound, per cent of control: 100%
KIT (human)
  kinase still bound, per cent of control: 77%
[3]
  kinase still bound, per cent of control: 97%
MAP3K11 (human)
  kinase still bound, per cent of control: 100%
MAPK8 (human)
  kinase still bound, per cent of control: 96%
MAPKAPK5 (human)
  kinase still bound, per cent of control: 100%
MAST1 (human)
  kinase still bound, per cent of control: 83%
MATK (human)
  kinase still bound, per cent of control: 100%
MINK1 (human)
  kinase still bound, per cent of control: 100%
MKNK2 (human)
  kinase still bound, per cent of control: 92%
MYO3B (human)
  kinase still bound, per cent of control: 79%
NEK5 (human)
  kinase still bound, per cent of control: 100%
PAK7 (human)
  kinase still bound, per cent of control: 82%
[4]
  kinase still bound, per cent of control: 100%
[5]
  kinase still bound, per cent of control: 100%
PLK3 (human)
  kinase still bound, per cent of control: 91%
PRKCQ (human)
  kinase still bound, per cent of control: 99%
PRKD1 (human)
  kinase still bound, per cent of control: 100%
PRKD2 (human)
  kinase still bound, per cent of control: 100%
PRPF4B (human)
  kinase still bound, per cent of control: 100%
PTK6 (human)
  kinase still bound, per cent of control: 90%
RIOK2 (human)
  kinase still bound, per cent of control: 100%
RIPK1 (human)
  kinase still bound, per cent of control: 100%
RPS6KA3 KD1 (human)
  kinase still bound, per cent of control: 97%
RPS6KA5 KD2 (human)
  kinase still bound, per cent of control: 98%
SRC (human)
  kinase still bound, per cent of control: 98%
ULK2 (human)
  kinase still bound, per cent of control: 90%
